# Experiments:
# PEPCK = experiment: liver PEPCK mRNA by real-time PCR after the infusions; assay type: in vivo, Sprague-Dawley rats
# Source text: (§1) Gene expression. Gluconeogenic enzymes. Quantitative analysis of gene expression was done using RT-PCR. Total RNA was isolated with Trizol (Invitrogen) and single-strand cDNA was synthesized with a kit provided by Invitrogen. Real-time PCR reactions and the primers for G6Pase and PEPCK were done as described (Pocai et al., in press). The copy number of each transcript was derived from a standard curve of cloned target templates. Expression of each transcript was normalized to copy number for 18s ribosomal protein.
# [1] = test system: KATP channels within the medial hypothalamus; experiment: Intrahypothalamic (IH) infusion of diazoxide or insulin with pancreatic-insulin clamp; assay type: in vivo, Sprague-Dawley rats; settings: for rate of glucose infusion required to prevent hypoglycemia: IH infusion during a pancreatic clamp, vs vehicle; for blood glucose levels / GP (glucose production): IH infusion; for blood glucose levels: bilateral, medial hypothalamus, total dose insulin 2 μU; for GP (glucose production): basal circulating insulin
# Source text: Animal preparation for the in vivo experiments. Rats. Eighty-nine 10-week-old male Sprague-Dawley rats (Charles River Breeding Laboratories, Wilmington, Mass.) were studied. Rats were housed in individual cages and subjected to a standard light-dark cycle. Three weeks prior to the in vivo studies, chronic catheters were implanted in the third cerebral ventricle (Obici et al., 2003; Liu et al., 1998) or intrahypothalamically (Morton et al., 2003) (IH) by stereotaxic surgery. One week before the pancreatic-insulin clamp protocols, rats received additional catheters in the right internal jugular and left carotid artery (FIG. 5) (Obici et al., 2003; Liu et al., 1998). In vivo studies. For the studies in rats, the metabolic experiments were performed ˜3 weeks after stereotaxic surgery following complete recovery from the operation (FIG. 5). All solutions were diluted with artificial cerebral spinal fluid (aCSF). […] Pancreatic-insulin clamp studies were performed as previously described (Liu et al., 1998). Euglycemic-hyperinsulinemic clamps in conscious, unrestrained, catheterized mice were performed for 90 min as previously described (Obici et al., 2003; Liu et al., 1998).
# [2] = test system: hypothalamic KATP channels; experiment: central infusion in rats on a high fat diet for three days (hepatic insulin resistance), glucose production; assay type: in vivo; settings: plasma insulin 20 μU/ml
# Protocol: Additional experiments were also performed in rats maintained on a high fat diet regimen for three days.
# G6Pase = experiment: liver G6Pase mRNA by real-time PCR after the infusions; assay type: in vivo, Sprague-Dawley rats
# Source text: as §1
# central KATP channels = experiment: ICV infusion of diazoxide with pancreatic-insulin clamp (1 mU/kg·min) in conscious rats; assay type: in vivo, Sprague-Dawley rats
# Source text: Animal preparation for the in vivo experiments. Rats. Eighty-nine 10-week-old male Sprague-Dawley rats (Charles River Breeding Laboratories, Wilmington, Mass.) were studied. Rats were housed in individual cages and subjected to a standard light-dark cycle. Three weeks prior to the in vivo studies, chronic catheters were implanted in the third cerebral ventricle (Obici et al., 2003; Liu et al., 1998) or intrahypothalamically (Morton et al., 2003) (IH) by stereotaxic surgery. One week before the pancreatic-insulin clamp protocols, rats received additional catheters in the right internal jugular and left carotid artery (FIG. 5) (Obici et al., 2003; Liu et al., 1998). In vivo studies. For the studies in rats, the metabolic experiments were performed ˜3 weeks after stereotaxic surgery following complete recovery from the operation (FIG. 5). All solutions were diluted with artificial cerebral spinal fluid (aCSF). […] Pancreatic-insulin clamp studies were performed as previously described (Liu et al., 1998). Euglycemic-hyperinsulinemic clamps in conscious, unrestrained, catheterized mice were performed for 90 min as previously described (Obici et al., 2003; Liu et al., 1998). Hepatic glucose fluxes. Rate of hepatic glucose fluxes was determined as described. Barzilai et al., 1997).
# [3] = test system: hypothalamic KATP channels; experiment: ICV infusion of insulin, KATP channel blocker (glibenclamide) or both with pancreatic-insulin clamp (1 mU/kg·min); assay type: in vivo, Sprague-Dawley rats; settings: for Direct: ICV infusion, direct pathway; for glucose infusion needed to prevent hypoglycemia: near basal circulating insulin levels
# Source text: Animal preparation for the in vivo experiments. Rats. Eighty-nine 10-week-old male Sprague-Dawley rats (Charles River Breeding Laboratories, Wilmington, Mass.) were studied. Rats were housed in individual cages and subjected to a standard light-dark cycle. Three weeks prior to the in vivo studies, chronic catheters were implanted in the third cerebral ventricle (Obici et al., 2003; Liu et al., 1998) or intrahypothalamically (Morton et al., 2003) (IH) by stereotaxic surgery. […] In vivo studies. For the studies in rats, the metabolic experiments were performed ˜3 weeks after stereotaxic surgery following complete recovery from the operation (FIG. 5). All solutions were diluted with artificial cerebral spinal fluid (aCSF). […] Euglycemic-hyperinsulinemic clamps in conscious, unrestrained, catheterized mice were performed for 90 min as previously described (Obici et al., 2003; Liu et al., 1998). Hepatic glucose fluxes. Rate of hepatic glucose fluxes was determined as described. Barzilai et al., 1997).
# [4] = test system: hepatic glucose production; experiment: pancreatic-hyperinsulinemic clamp (insulin 3 mU/kg·min) in SHAM and HV rats; assay type: in vivo, Sprague-Dawley rats; settings: for suppression of GP (glucose production): hyperinsulinemia ~3-fold over basal; for Direct / % Indirect: systemic insulin (3 mU); for Direct: direct pathway; for % Indirect: indirect pathway
# Protocol: Panel A is a schematic representation of the pancreatic-hyperinsulinemic clamp procedure. At t=120 an infusion of labeled glucose was initiated and maintained for the remaining 4 hours of the study and a pancreatic hyperinsulinemic clamp was initiated at t=240 min and lasted for 2 hours. […] The figure is a longitudinal view of a rat brain, with olfactory bulb at the anterior end on the left and the caudal hindbrain on the right.
# (§2) In vivo studies. For the studies in rats, the metabolic experiments were performed ˜3 weeks after stereotaxic surgery following complete recovery from the operation (FIG. 5). All solutions were diluted with artificial cerebral spinal fluid (aCSF). […] Euglycemic-hyperinsulinemic clamps in conscious, unrestrained, catheterized mice were performed for 90 min as previously described (Obici et al., 2003; Liu et al., 1998).
# (§3) Selective hepatic branch vagotomy. One week before the clamp procedure a subgroup of rats underwent selective hepatic vagotomy (HV) or sham operation (SHAM). Anatomical nerve transactions was verified in each rat at sacrifice by microscopic observation of the absence of vagal nerve fibers in between the two silk sutures that had been placed along the trunk at the time of transection (la Fleur et al., 2003).
# (§4) Hepatic glucose fluxes. Rate of hepatic glucose fluxes was determined as described. Barzilai et al., 1997).
# [5] = molecular target: T1, hypothalamic insulin receptors (Rattus norvegicus, UniProt P15127); experiment: ICV insulin in rats with hepatic branch vagotomy (HV), sham operation or vagal deafferentation, pancreatic-insulin clamp (1 mU/kg·min); assay type: in vivo, Sprague-Dawley rats
# T1 construct: Paired groups of SHAM and HV rats received an ICV infusion of either insulin or vehicle; from tissue; host or cells: CNS / hypothalamus of living Sprague-Dawley rats (ICV infusion)
# T1 sequence (P15127 27-759 limits assumed): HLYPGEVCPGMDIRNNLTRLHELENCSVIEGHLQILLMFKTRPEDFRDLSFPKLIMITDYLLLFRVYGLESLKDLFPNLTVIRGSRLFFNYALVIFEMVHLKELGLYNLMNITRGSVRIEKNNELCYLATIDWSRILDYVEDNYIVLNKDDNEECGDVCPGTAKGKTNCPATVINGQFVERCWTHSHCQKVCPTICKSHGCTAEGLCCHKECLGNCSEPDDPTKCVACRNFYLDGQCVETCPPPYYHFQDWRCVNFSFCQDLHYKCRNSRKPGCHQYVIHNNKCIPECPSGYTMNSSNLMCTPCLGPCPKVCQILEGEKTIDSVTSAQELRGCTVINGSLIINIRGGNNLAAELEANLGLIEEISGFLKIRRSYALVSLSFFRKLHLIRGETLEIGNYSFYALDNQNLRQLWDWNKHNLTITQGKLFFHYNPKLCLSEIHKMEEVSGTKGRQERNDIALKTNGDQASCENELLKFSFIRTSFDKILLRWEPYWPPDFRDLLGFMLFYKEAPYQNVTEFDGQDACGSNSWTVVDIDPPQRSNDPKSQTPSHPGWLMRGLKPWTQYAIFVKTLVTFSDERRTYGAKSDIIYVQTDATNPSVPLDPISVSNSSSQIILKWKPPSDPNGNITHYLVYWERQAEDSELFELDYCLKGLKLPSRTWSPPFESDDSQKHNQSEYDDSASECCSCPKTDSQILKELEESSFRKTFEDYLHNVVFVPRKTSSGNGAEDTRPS
# T1 sequence (P15127 764-1383 partner limits assumed): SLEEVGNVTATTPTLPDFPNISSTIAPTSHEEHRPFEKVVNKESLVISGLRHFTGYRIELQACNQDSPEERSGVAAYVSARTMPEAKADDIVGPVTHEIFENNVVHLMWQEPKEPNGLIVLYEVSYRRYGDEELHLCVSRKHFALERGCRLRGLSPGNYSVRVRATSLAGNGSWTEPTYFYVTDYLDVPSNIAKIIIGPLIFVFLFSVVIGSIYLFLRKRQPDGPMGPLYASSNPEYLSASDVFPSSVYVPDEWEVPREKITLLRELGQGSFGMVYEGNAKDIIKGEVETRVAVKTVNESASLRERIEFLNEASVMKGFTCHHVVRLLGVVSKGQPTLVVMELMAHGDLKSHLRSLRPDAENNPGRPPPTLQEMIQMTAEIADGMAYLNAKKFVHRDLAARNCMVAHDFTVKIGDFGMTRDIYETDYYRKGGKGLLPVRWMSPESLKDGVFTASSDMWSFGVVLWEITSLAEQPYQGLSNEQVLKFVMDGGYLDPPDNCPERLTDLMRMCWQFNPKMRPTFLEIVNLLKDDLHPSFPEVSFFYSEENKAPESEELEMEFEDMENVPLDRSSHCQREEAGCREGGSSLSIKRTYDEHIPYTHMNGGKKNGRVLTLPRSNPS
# Source text: Animal preparation for the in vivo experiments. Rats. Eighty-nine 10-week-old male Sprague-Dawley rats (Charles River Breeding Laboratories, Wilmington, Mass.) were studied. Rats were housed in individual cages and subjected to a standard light-dark cycle. Three weeks prior to the in vivo studies, chronic catheters were implanted in the third cerebral ventricle (Obici et al., 2003; Liu et al., 1998) or intrahypothalamically (Morton et al., 2003) (IH) by stereotaxic surgery.
# as §2, §3
# Selective vagal deafferentation. Nerve transection was performed as previously described, according to the methods of Norgren and Smith (Norgren & Smith, 1998).
# as §4
# [6] = ICV insulin with or without KATP channel blocker
# [7] = selective vagal deafferentation, ability of central insulin not altered
compound,measurement,setting,value
"CC1=NS(=O)(=O)c2cc(Cl)ccc2N1 [diazoxide, reference compound]",liver PEPCK mRNA levels,PEPCK; ICV diazoxide study,markedly decreased
same,rate of glucose infusion required to prevent hypoglycemia,[1],significant increases
same,blood glucose levels,[1],lowered blood glucose levels
same,GP (glucose production),[1],marked suppression of GP
same,inhibition of glucose production,[2]; ICV or intrahypothalamic infusion,~45%
same,liver G6Pase mRNA levels,G6Pase; ICV diazoxide study,markedly decreased
same,glucose cycling,central KATP channels; ICV,significantly reduced
same,in vivo flux through G6Pase,central KATP channels; ICV,decreased the flux through G6Pase
same,Direct,"central KATP channels; ICV infusion, direct pathway",14.37 ± 2.2%
same,decrease in GP (glucose production),"central KATP channels; ICV, 1.5 nmol, basal insulin levels (~20 μU/ml)",45±4%
same,glucose infusion needed to prevent hypoglycemia,"central KATP channels; ICV, basal circulating insulin levels",glucose infusion was required to prevent hypoglycemia
"COc1ccc(Cl)cc1C(=O)NCCc1ccc(S(=O)(=O)NC(=O)NC2CCCCC2)cc1 [glibenclamide, 5-Chloro-N-[2-[4-(3-cyclohexylureidosulfonyl)phenyl]-ethyl]-2-methoxybenzamide, reference compound]",Direct,[3],18.5 ± 2.8%
same,GP (glucose production),"[3]; ICV, blocker alone or co-infused with insulin",did not per se affect GP
same,glucose infusion needed to prevent hypoglycemia,[3]; ICV,did not modify the rate of glucose infusion
insulin,Glucose,"[4]; HV, Clamp, systemic insulin 3 mU/Kg·min",8.1 ± 0.5 mM
same,suppression of GP (glucose production),[4]; HV,38±11%
same,Direct,[4]; HV,22.0 ± 2.3%
same,% Indirect,[4]; HV,60.7 ± 9.4 %
same,suppression of GP (glucose production),[4]; SHAM,80±8%
same,Direct,[4]; SHAM,22.8 ± 3.9%
same,% Indirect,[4]; SHAM,34.5 ± 6.7%
same,liver PEPCK mRNA levels,"PEPCK; HV, ICV insulin",not in HV rats
same,liver PEPCK mRNA levels,PEPCK; [6],marked KATP channels dependent decreases
same,liver PEPCK mRNA levels,"PEPCK; SHAM, ICV insulin",marked decrease
same,rate of glucose infusion required to prevent hypoglycemia,[1],significant increases
same,blood glucose levels,[1],reproduced the potent effects of ICV insulin or diazoxide
same,GP (glucose production),[1],reproduced the potent effects of ICV insulin or diazoxide
same,in vivo flux through G6Pase,[3]; ICV,markedly decreased
same,Direct,[3],12.1 ± 0.7%
same,decrease in GP (glucose production),"[3]; ICV insulin 30 μU, basal and equal insulin levels (~20 μU/ml)",52±8%
same,glucose infusion needed to prevent hypoglycemia,[3]; ICV,glucose infusion was required to prevent hypoglycemia
same,rate of glucose disposal (uptake),"[3]; ICV, pancreatic-insulin clamp",not significantly affected
same,glucose production,[2]; central administration,failed to significantly inhibit glucose production
same,liver G6Pase mRNA levels,G6Pase; [6],marked KATP channels dependent decreases
same,liver G6Pase mRNA levels,"G6Pase; SHAM, ICV insulin",marked decrease
same,^14C-PEP,"[5]; HV, ICV",5.5 ± 1.4 dpm/nmol
same,glucose infusion needed to prevent hypoglycemia,"[5]; HV, ICV insulin",not in the HV rats
same,hepatic glucose fluxes,"[5]; HV, ICV insulin",failed to affect hepatic glucose fluxes
same,^3H-Glucose Plasma SA,"[5]; SHAM, ICV",43.1 ± 1.9 dpm/nmol
same,^3H-UDPglucose Liver SA,"[5]; SHAM, ICV",5.5 ± 0.5 dpm/nmol
same,gluconeogenesis,"[5]; SHAM, ICV insulin",marked inhibition of gluconeogenesis
same,glucose infusion needed to prevent hypoglycemia,"[5]; SHAM, ICV insulin",glucose infusion was required to prevent hypoglycemia
same,in vivo flux through G6Pase,"[5]; SHAM, ICV insulin",markedly decreased
same,Direct,"[5]; SHAM, ICV, direct pathway",12.1 ± 0.7%
same,rate of glucose uptake,"[5]; either SHAM or HV rats, ICV",not significantly affected
same,GP (glucose production),[5]; [7],suppress GP
same,blood glucose levels,[5]; [7],lower blood glucose levels

# Source: US20090012067A1, “Modulation of Hypothalamic Atp-Sensitive Potassium Channels” (priority 2005, published 2009)
